Experimental data reported in patent US12466818B2, “Thienyl-aniline compounds for treatment of dermal disorders” (NFlection Therapeutics, Inc., priority 2018, dated 2025).

Key:
MEK1 = MEK1 (Homo sapiens (Human), UniProt Q02750); assay: MEK Inhibition Assay-2 (Z'-LYTE biochemical assay); settings: Z'-LYTE assay of Example 37; read-out: IC50 against MEK1
Procedure: MEK1 inhibitory activity of compounds were tested using the following procedure (protocol available at thermofisher.com/content/dam/LifeTech/migration/files/drug-discovery/pdfs.par.60256.file.dat/20130430%20ssbk %20customer %20protocol %20 and %20assa y %20conditions.pdf). The Z′-LYTE biochemical assay (ThermoFisher) employs a fluorescence-based, coupled-enzyme format and is based on the differential sensitivity of phosphorylated and non-phosphorylated peptides to proteolytic cleavage.
Test compounds in 100% DMSO were screened in 1% DMSO (final) in the well. For 10 point titrations, 3-fold serial dilutions are conducted from the starting concentration of 30 μM.
After the 1 hour incubation, 5 μL of a 1:1024 dilution of Development Reagent A (available from Invitrogen, catalog no. PV3295) was added.
ATP solutions were diluted to a 4× working concentration in Kinase Buffer (50 mM HEPES pH 7.5, 0.01% BRIJ-35, 10 mM MgCl2, 1 mM EGTA). ATP Km apparent was previously determined using a Z′-LYTE assay. The Development Reagent was diluted in Development Buffer (available from Invitrogen, catalog no. P3127).
Assay Protocol: 2.5 μL of 4× test compound or 100 nL of 100× Test Compound plus 2.4 μL Kinase Buffer, 5 μL of the 2× Peptide/Kinase Mixture, 2.5 μL of 4×ATP Solution were added to the plates and placed on a shake plate for 30-seconds. The kinase reaction was allowed to proceed for 60-minute at room temperature, before 5 μL of Development Reagent Solution was added, and the mixture agitated for 30-seconds on a shake plate. The mixture was incubated for 60-minute at room temperature. Fluorescence was measured using a plate reader and the data were analyzed.
This control yielded 100% cleaved peptide in the Development Reaction. The 100% Phosphorylation Control, which consisted of a synthetically phosphorylated peptide of the same sequence as the peptide substrate, was designed to allow for the calculation of percent phosphorylation. This control yielded a very low percentage of cleaved peptide in the Development Reaction. The 0% Phosphorylation and 100% Phosphorylation Controls allow for the calculation of the percent phosphorylation achieved in a specific reaction well.
The minimum emission ratio in a screen was established by the 0% Inhibition Control, which contained active kinase. This control was designed to produce a 10-50% phosphorylated peptide in the Kinase Reaction. Cascade assays may produce up to 70% phosphorylated peptide.
A known inhibitor control standard curve, 10 point titration, was run for each individual kinase on the same plate as the kinase to ensure the kinase was inhibited within an expected IC50 range previously determined.
The following controls are prepared for each concentration of Test Compound assayed. […] The expected value for a non-interfering compound should be 100%. Any value outside of 90% to 110% was flagged. […] The expected value for a non-fluorescence compound should be 0%. Any value>20% was flagged.
The data in Table A was calculated. XLfit from IDBS was used. The dose response curve was curve fit to model number 205 (sigmoidal dose-response model).
Table 3 lists the MEK1 inhibition assay results of selected compounds according to the above procedure.

[1] = test system: pERK in human cutaneous neurofibroma explants; assay: Human cutaneous neurofibroma explant pERK suppression (Western blot); format: cell-based
Procedure: Explant Protocol: Human cutaneous neurofibroma explant samples were collected in DMEM/F-12 (Thermo Fisher, Cat #11320033) supplemented with 1×B27 supplement (Thermo Fisher, Cat #17504044), 2.5 μg/ml of Amphotericin B (Thermo Fisher, Cat #15290018), and 50 units/ml of Penicillin-50 μg/ml of Streptomycin (Thermo Fisher, Cat #15070063) and incubated in the same medium for subsequent treatment. The specimen was cut into small cubes containing both the epidermis and dermis. The tissues were partially submerged in the medium in 384-well plate with the epidermis exposed to the air.
The tissues were fully submerged in the medium in 48-well plate and 5 μl of compounds dissolved in DMSO were added to 200 μl of the medium in each well. After 4 h incubation at 37° C. and 5% CO2, the tissues were harvested and half of the specimen was flash frozen in liquid nitrogen for Western Blot analysis. The other half of the specimen was fixed for 24 hours in 10% formalin and then transferred to 70% ethanol for […].
Skin samples were thawed on ice and weighed. 10 volume (10 μl for each mg of tissue) of lysis buffer (RIPA buffer+0.5 mM EDTA+1×Halt protease and phosphatase inhibitor cocktail) was then added to each sample. […]
Western Blot analysis: The lysate was thawed on ice and protein concentration was determined by the BCA protein assay kit using bovine serum albumin (BSA) as standards. […]

Chain of MEK1 (Q02750 whole entry): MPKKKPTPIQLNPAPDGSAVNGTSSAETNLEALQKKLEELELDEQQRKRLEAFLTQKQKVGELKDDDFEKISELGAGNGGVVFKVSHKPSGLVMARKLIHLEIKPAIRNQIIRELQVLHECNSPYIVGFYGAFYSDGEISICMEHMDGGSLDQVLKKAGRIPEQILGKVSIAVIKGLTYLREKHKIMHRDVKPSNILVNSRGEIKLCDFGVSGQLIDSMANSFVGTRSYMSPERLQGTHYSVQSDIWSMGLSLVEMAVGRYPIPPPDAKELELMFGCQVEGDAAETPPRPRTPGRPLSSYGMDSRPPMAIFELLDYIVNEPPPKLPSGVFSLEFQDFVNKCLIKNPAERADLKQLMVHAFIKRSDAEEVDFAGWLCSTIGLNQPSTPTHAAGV

IC50 (MEK1): ≤ 150 nM
Structure (SMILES): O=C1CCCc2c1sc(Nc1ccc(I)cc1F)c2C(=O)NOCCO [Compound 1.029, 2-((2-Fluoro-4-iodophenyl)amino)-N-(2-hydroxyethoxy)-7-oxo-4,5,6,7-tetrahydrobenzo[b]thiophene-3-carboxamide]
suppression of pERK in human cutaneous neurofibroma (cNF) explants (FIG. 5) ([1]; concentration of 500 nM): suppression of pERK
suppression of pERK in human cutaneous neurofibroma (cNF) explants (FIG. 4) ([1]; treatment for 4 hours at 5 nM, 50 nM, and 500 nM): suppression of pERK
